Results from US20190365818A1, “GENETICALLY-TAGGED STEM CELL LINES AND METHODS OF USE” (ALLEN INSTITUTE, priority 2017, published 2019).
Entries after “also recorded” stand apart in the source; their conditions may differ.

Columns and labels:
Golgi = assay: Fluorescence quantification of 3D images: drug-induced Golgi reorganization; type: cell-based, human; conditions: GFP channel intensity summed over z-stack, 30-minute intervals, vs DMSO
Description: (§1) The pipeline was prototyped using a small suite of well-characterized compounds that include brefeldin A, paclitaxel, rapamycin, wortmannin and staurosporine (FIG. 26A). Low-resolution imaging (24× magnification) was used to test a matrix of concentrations and time points for each compound of interest to establish an initial set of conditions for each perturbation. hiPSC colonies were monitored for morphologic changes using transmitted light (FIG. 26B) and an endogenously GFP-tagged structure, such as microtubules (FIG. 26C). After establishing an end point response for several compounds, high-resolution (120× magnification) imaging of multiple cell lines was performed under standardized perturbation parameters, in the presence of dyes to label the nucleus and cell membrane for reference purposes (FIG. 27). […] Cells were treated with the indicated perturbation agent at a pre-selected concentration and time point established in phase I.
(§2) Fluorescence quantification of the 3D images were used to analyze drug-induced Golgi reorganization, cytoskeleton reorganization, and cell junction reorganization. To quantify the relative abundance of each structure of interest (e.g. Golgi as presented above), the pixel intensities of the GFP channel (488 nm) were summed across the entire z-stack. […]

ER = assay: Image-based drug perturbation of GFP-tagged hiPSC lines: ER; type: cell-based, human; conditions: hiPS cells undergoing mitosis
Description: as §1

actin = assay: Image-based drug perturbation of GFP-tagged hiPSC lines: actin; type: cell-based, human
Description: as §1, §2

microtubules = assay: Image-based drug perturbation of GFP-tagged hiPSC lines: microtubules; type: cell-based, human
Description: as §1, §2

cell junctions = assay: Image-based drug perturbation of GFP-tagged hiPSC lines: cell junctions; parameters: species or system human
Description: as §1

hiPSC colonies = assay: Image-based drug perturbation of hiPSC colonies: colony and cell morphology; parameters: species or system human
Description: as §1

desmosomes = assay: Image-based drug perturbation of GFP-tagged hiPSC lines: desmosomes (3D object count); type: cell-based, human
Description: (§3) The pipeline was prototyped using a small suite of well-characterized compounds that include brefeldin A, paclitaxel, rapamycin, wortmannin and staurosporine (FIG. 26A). Low-resolution imaging (24× magnification) was used to test a matrix of concentrations and time points for each compound of interest to establish an initial set of conditions for each perturbation. hiPSC colonies were monitored for morphologic changes using transmitted light (FIG. 26B) and an endogenously GFP-tagged structure, such as microtubules (FIG. 26C). After establishing an end point response for several compounds, high-resolution (120× magnification) imaging of multiple cell lines was performed under standardized perturbation parameters, in the presence of dyes to label the nucleus and cell membrane for reference purposes (FIG. 27). […]
(§4) For drug-induced effects on cell junction reorganization, representative maximum intensity projections of a z-stack along the x-z axis are shown in FIG. 30. From these projections, the mean pixel intensity for the GFP channel along the x-axis, from the top of the image to the bottom, was measured to generate an intensity profile plot. […] To analyze the change in desmosome number, the number of 3D objects in a z-stack were counted using the 3D Object Counter tool in Fiji. […] Data were analyzed by Student's t-test (** p<0.01).

myosin = assay: Relative fluorescence quantification and z-axis intensity profiling: myosin; type: cell-based, human; conditions: for myosin organization through the thickness of the cell: z-axis intensity profiling
Description: as §1
Fluorescence quantification of the 3D images were used to analyze drug-induced Golgi reorganization, cytoskeleton reorganization, and cell junction reorganization. To quantify the relative abundance of each structure of interest (e.g. Golgi as presented above), the pixel intensities of the GFP channel (488 nm) were summed across the entire z-stack. For each experiment, the same threshold was used to exclude background intensity noise across the control (DMSO) and experimental (perturbation agent) groups. The data were plotted by averaging z-stack data from a time interval (30-minute) and compared to the control DMSO data. Dunnett's multiple comparison test was used to perform one-way ANOVA between the different time intervals against the control group.

ZO-1 = assay: Z-axis intensity profiling of 3D images: cell junction reorganization (ZO-1); type: cell-based, human; conditions: x-z maximum intensity projection, intensity profile plot
Description: as §3, §4

[1] = 3D fluorescence quantification vs DMSO

C[C@H]1CCC/C=C/[C@@H]2C[C@H](O)C[C@H]2[C@H](O)/C=C/C(=O)O1 [Brefeldin A, brefeldin A]
effect on Golgi organization (Golgi): induced dissociation of the golgi within 30 minutes

CC(=O)O[C@H]1C(=O)[C@@]2(C)[C@H]([C@H](OC(=O)c3ccccc3)[C@]3(O)C[C@H](OC(=O)[C@H](O)[C@@H](NC(=O)c4ccccc4)c4ccccc4)C(C)=C1C3(C)C)[C@]1(OC(C)=O)CO[C@@H]1C[C@@H]2O [paclitaxel]
effect on organization of the ER (ER): induced aberrant reorganization of the ER | effect on bulk organization of the actin bundles (actin; GFP-tagged hiPSC): minimal effects | effect on microtubule organization (microtubules; GFP-tagged hiPSC, high-resolution (120x) imaging, vs DMSO control): increased microtubule bundle thickness and altered the shape and position of the mitotic spindle; also recorded: stabilized the microtubules | microtubule relative localized fluorescence intensity (microtubules; over time, vs DMSO): trend of increased relative localized fluorescence intensity over time | effect on bulk organization of cell junctions (cell junctions): minimal effects

CN[C@@H]1C[C@H]2O[C@@](C)([C@@H]1OC)n1c3ccccc3c3c4c(c5c6ccccc6n2c5c31)C(=O)NC4 [staurosporine]
effect on colony and cell morphology (hiPSC colonies): major effects on colony and cell morphology, inducing rearrangements in cell packing and shape | number of DSP-positive plaques (desmosomes; 3D Object Counter, Student's t-test p<0.01): increased in number | effect on desmosome localization (desmosomes; GFP-tagged hiPSC): induced re-localization of desmosomes; also recorded: desmosomes relocalized throughout the cell | myosin organization through the thickness of the cell (myosin): induced reorganization of the myosin | distribution of ZO-1 along the z-axis (ZO-1): redistribution of ZO-1 along the z-axis

(S)-nitro blebbistatin
relative actin protein abundance and organization (actin; [1]): reorganization and relative decrease | effect on Golgi organization (Golgi): induced fragmentation of the organelle | relative myosin protein abundance and organization (myosin; [1]): reorganization and relative decrease | myosin organization through the thickness of the cell (myosin): induced reorganization of the myosin | distribution of ZO-1 along the z-axis (ZO-1): redistribution of ZO-1 along the z-axis
